Test results taken from patent US20230063230A1, “NURR1 RECEPTOR MODULATORS” (priority 2019, published 2023).

What was measured:
Nurr1 [1] = molecular target: T1, Nurr1 (Homo sapiens, UniProt P43354); experiment: Binding MST
Target sequence in this assay (P43354 360-595 limits assumed): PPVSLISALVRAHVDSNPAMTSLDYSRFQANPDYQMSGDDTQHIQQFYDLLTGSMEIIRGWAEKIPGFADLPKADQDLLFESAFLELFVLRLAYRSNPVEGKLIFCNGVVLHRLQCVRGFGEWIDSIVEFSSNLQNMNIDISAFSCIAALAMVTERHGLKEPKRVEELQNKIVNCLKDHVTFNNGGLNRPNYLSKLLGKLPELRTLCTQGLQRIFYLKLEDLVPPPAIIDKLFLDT

Nurr1 [2] = molecular target: T1, Nurr1; experiment: Binding SPR
Target sequence in this assay (P43354 360-595 limits assumed): as above

Vmat2 in MN9D = experiment: cells; format: cell-based; conditions: cpds tested at 10 μM, analogs of compound 87, read-out: qPCR MN9D Vmat2
Nurr1 [3] = molecular target: T1, Nurr1; experiment: Luciferase cellular assay; format: cell-based; parameters: expressed in transfected cells; host or cells: SK-N-BE(2)C cells (ATCC CRL-2268); conditions: cpds tested at 10 μM; analogs of compound 87
Target sequence in this assay (P43354 328-598): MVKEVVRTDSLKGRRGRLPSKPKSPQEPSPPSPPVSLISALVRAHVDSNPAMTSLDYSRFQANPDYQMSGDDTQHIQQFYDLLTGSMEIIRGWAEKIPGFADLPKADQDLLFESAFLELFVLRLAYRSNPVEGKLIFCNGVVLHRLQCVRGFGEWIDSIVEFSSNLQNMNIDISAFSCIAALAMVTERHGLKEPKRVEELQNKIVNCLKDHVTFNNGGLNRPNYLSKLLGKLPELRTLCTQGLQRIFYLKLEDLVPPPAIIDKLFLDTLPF

Nurr1 in MN9D = experiment: qPCR MN9D Nurr1; format: cell-based; conditions: cpds tested at 10 μM, analogs of compound 87
TH in SHSY5Y = experiment: qPCR SHSY5Y TH; format: cell-based; conditions: Homo sapiens, SH-SY5Y, cpds tested at 10 μM

| Binding MST (Nurr1 [1]; analogs of compound 87) | Binding SPR (Nurr1 [2]; analogs of compound 87) | SMILES | fold induction at 10 µM (Vmat2 in MN9D) | further results |
| --- | --- | --- | --- | --- |
| ++ |  | C=CC(=O)n1cc(C(C)(C)NC(=O)c2cc(Cl)cc(Cl)c2)cn1 [SP 162, N-(2-(1-acryloyl-1H-pyrazol-4-yl)propan-2-yl)-3,5-dichlorobenzamide] |  |  |
| + | + | CCn1cc(C(C)(C)NC(=O)c2cc(Cl)cc(Cl)c2)nn1 [SP 65, 3,5-dichloro-N-(2-(1-ethyl-1H-1,2,3-triazol-4-yl)propan-2-yl)benzamide] |  |  |
| + |  | COc1ccc(Cn2cc(C(C)(C)NC(=O)c3cc(Cl)cc(Cl)c3)nn2)cc1 [SP 178, 3,5-dichloro-N-(2-(1-(4-methoxybenzyl)-1H-1,2,3-triazol-4-yl)propan-2-yl)benzamide] |  |  |
| + | + | CC(C)(NC(=O)c1ccccc1)c1cn(CCc2ccc(Cl)c(Cl)c2)nn1 [SP 138, N-(2-(1-(3,4-dichlorophenethyl)-1H-1,2,3-triazol-4-yl)propan-2-yl)benzamide] |  |  |
| + | + | CC(C)(NCc1cc(Cl)cc(Cl)c1)c1cn(CCc2ccc(Cl)c(Cl)c2)nn1 [SP 136, N-(3,5-dichlorobenzyl)-2-(1-(3,4-dichlorophenethyl)-1H-1,2,3-triazol-4-yl)propan-2-amine] |  |  |
|  | + | CC(C)(NC(=O)c1cc(Cl)cc(Cl)c1)c1cn(CCC(=O)O)nn1 [GWL 2.129, 3-(4-(2-(3,5-dichlorobenzamido)propan-2-yl)-1H-1,2,3-triazol-1-yl)propanoic acid] |  |  |
|  | + | CC(C)(NC(=O)c1cc(Cl)cc(Cl)c1)c1cn(CC(=O)O)nn1 [GWL 2.131, 2-(4-(2-(3,5-dichlorobenzamido)propan-2-yl)-1H-1,2,3-triazol-1-yl)acetic acid] |  |  |
|  | + | CC(C)(NC(=O)c1cc(Cl)cc(Cl)c1)c1cn(CCC(N)=O)nn1 [GWL 2.154, N-(2-(1-(3-amino-3-oxopropyl)-1H-1,2,3-triazol-4-yl)propan-2-yl)-3,5-dichlorobenzamide] |  |  |
| + | + | CC(C)(NC(=O)c1cc(Cl)cc(Cl)c1)c1cn(Cc2ccccc2)nn1 [SP 98, N-(2-(1-benzyl-1H-1,2,3-triazol-4-yl)propan-2-yl)-3,5-dichlorobenzamide] |  |  |
|  | + | CC(C)(NC(=O)c1cc(Cl)cc(Cl)c1)c1cn(CCc2ccc(Cl)c(Cl)c2)nn1 [SP 100, 3,5-dichloro-N-(2-(1-(3,4-dichlorophenethyl)-1H-1,2,3-triazol-4-yl)propan-2-yl)benzamide] |  |  |

The next lines start with the molecule.

| SMILES | Binding MST (Nurr1 [1]; analogs of compound 87) | Binding SPR (Nurr1 [2]; analogs of compound 87) | fold induction at 10 µM (Vmat2 in MN9D) | further results |
| --- | --- | --- | --- | --- |
| CC(C)(NC(=O)c1ccc(Cl)c(Cl)c1)c1cn(CCS)nn1 [SP 157, 3,4-dichloro-N-(2-(1-(2-mercaptoethyl)-1H-1,2,3-triazol-4-yl)propan-2-yl)benzamide] | +++ | + | > 4 | Luciferase (Nurr1 [3]): +++ (+++ =>4−fold) |
| CC(C)(NC(=O)c1cc(Cl)cc(Cl)c1)c1cnn(CCS)c1 [SP 153, 3,5-dichloro-N-(2-(1-(2-mercaptoethyl)-1H-pyrazol-4-yl)propan-2-yl)benzamide] | +++ | +++ | > 1.5 | fold induction at 10 µM (Nurr1 in MN9D): > 4; fold induction at 10 µM (TH in SHSY5Y): > 4 |
| CC(C)(NC(=O)c1cc(Cl)cc(Cl)c1)c1cn(CCc2ccc(Br)cc2)nn1 [SP 147, N-(2-(1-(4-bromophenethyl)-1H-1,2,3-triazol-4-yl)propan-2-yl)-3,5-dichlorobenzamide] |  | + |  |  |
| O=C(COc1ccc(Cl)c(Cl)c1)NCc1ccc(O)c(O)c1 [SP 95, 2-(3,4-dichlorophenoxy)-N-(3,4-dihydroxybenzyl)acetamide] |  |  |  | Binding MST (Nurr1 [1]; analogs of compound 85): +; Binding SPR (Nurr1 [2]; analogs of compound 85): + |
| CC(=O)SCCn1cc(C(C)(C)NC(=O)c2cc(Cl)cc(Cl)c2)cn1 [SP 184, S-2-(4-(2-(3,5-dichlorobenzamido)propan-2-yl)-1H-pyrazol-1-yl)ethyl ethanethioate] |  |  | > 1.5 | fold induction at 10 µM (Nurr1 in MN9D): > 4 |
| CC(=O)SCCn1cc(C(C)(C)NC(=O)c2cc(Cl)cc(Cl)c2)nn1 [SP 151, S-2-(4-(2-(3,5-dichlorobenzamido)propan-2-yl)-1H-1,2,3-triazol-1-yl)ethyl ethanethioate] |  |  | > 1.5 |  |
| CC(C)(NC(=O)c1cc(Cl)cc(Cl)c1)c1cn(CCSC(=O)c2ccccc2)nn1 [SP 164, S-2-(4-(2-(3,5-dichlorobenzamido)propan-2-yl)-1H-1,2,3-triazol-1-yl)ethyl benzothioate] |  | + | > 4 |  |
| CC(C)(NC(=O)c1cc(F)cc(F)c1)c1cn(CCS)nn1 [SP 158, 3,5-difluoro-N-(2-(1-(2-mercaptoethyl)-1H-1,2,3-triazol-4-yl)propan-2-yl)benzamide] | ++ | + |  |  |
| CC(=O)SCCn1cc(C(C)(C)NC(=O)c2cc(Cl)cc(N3CCN(C)CC3)c2)nn1 [SP 186, S-2-(4-(2-(3-chloro-5-(4-methylpiperazin-1-yl)benzamido)propan-2-yl)-1H-1,2,3-triazol-1-yl)ethyl ethanethioate] |  |  | > 1.5 | Luciferase (Nurr1 [3]): ++ (++ => 1.5-fold) |
| CC(C)C(=O)SCCn1cc(C(C)(C)NC(=O)c2cc(Cl)cc(Cl)c2)nn1 [SP 163, S-2-(4-(2-(3,5-dichlorobenzamido)propan-2-yl)-1H-1,2,3-triazol-1-yl)ethyl 2-methylpropanethioate] |  |  | > 4 | fold induction at 10 µM (TH in SHSY5Y): > 1.5 |
| COc1cc(OC)cc(C(=O)NC(C)(C)c2cn(CCSC(C)=O)nn2)c1 [SP 193, S-2-(4-(2-(3,5-dimethoxybenzamido)propan-2-yl)-1H-1,2,3-triazol-1-yl)ethyl ethanethioate] |  |  | > 1.5 |  |
| CC(=O)SCCn1cc(C(C)(C)NC(=O)c2cnc3ccccc3c2)nn1 [SP 194, S-2-(4-(2-(quinoline-3-carboxamido)propan-2-yl)-1H-1,2,3-triazol-1-yl)ethyl ethanethioate] |  |  | > 1.5 | fold induction at 10 µM (Nurr1 in MN9D): > 4 |
| COc1cc(OC)cc(C(=O)NC(C)(C)c2cn(CCS)nn2)c1 [SP 191, N-(2-(1-(2-mercaptoethyl)-1H-1,2,3-triazol-4-yl)propan-2-yl)-3,5-dimethoxybenzamide] | ++ | + | > 1.5 | fold induction at 10 µM (Nurr1 in MN9D): > 4 |
| O=C(COc1ccc(Cl)c(Cl)c1)NCCc1ccc(O)c(O)c1 [SP 60, 2-(3,4-dichlorophenoxy)-N-(3,4-dihydroxyphenethyl)acetamide] |  |  |  | Binding MST (Nurr1 [1]; analogs of compound 85): +; Binding SPR (Nurr1 [2]; analogs of compound 85): + |
| CC(C)(NC(=O)c1ccc(Cl)c(Cl)c1)c1cn(CCc2ccc(Cl)c(Cl)c2)nn1 [SP 146, 3,4-dichloro-N-(2-(1-(3,4-dichlorophenethyl)-1H-1,2,3-triazol-4-yl)propan-2-yl)benzamide] |  |  |  | Binding SPR (Nurr1 [2]; analogs of compound 85): + |
| CSSCCn1cc(C(C)(C)NC(=O)c2cc(Cl)cc(NC(C)=O)c2)nn1 [SP 183] | + | + |  |  |
| C=CS(=O)(=O)NNC(=O)COc1ccc(Cl)c(Cl)c1 [UNI6-003, N′-(2-(3,4-dichlorophenoxy)acetyl)ethenesulfonohydrazide] |  |  |  | Binding MST (Nurr1 [1]; analogs of compound 85): + |
| CC(C)(NC(=O)c1cc(Cl)cc(Cl)c1)c1cnn(CCN)c1 [SP 155, N-(2-(1-(2-aminoethyl)-1H-pyrazol-4-yl)propan-2-yl)-3,5-dichlorobenzamide] | + | + |  |  |
| CC(C)(NC(=O)c1cc(Cl)cc(Cl)c1)c1cn(-c2ccoc2)nn1 [GWL 3.001, 3,5-dichloro-N-(2-(1-(furan-3-yl)-1H-1,2,3-triazol-4-yl)propan-2-yl)benzamide] |  | + |  |  |
| CC(C)(NC(=O)c1cc(Cl)cc(Cl)c1)c1cnn(COCC[Si](C)(C)C)c1 [SP 174, 3,5-dichloro-N-(2-(1-((2-(trimethylsilyl)ethoxy)methyl)-1H-pyrazol-4-yl)propan-2-yl)benzamide] |  | + |  | fold induction at 10 µM (Nurr1 in MN9D): > 4 |
| C=CC(=O)NNC(=O)COc1ccc(Cl)c(Cl)c1 [UNI6-001, N′-(2-(3,4-dichlorophenoxy)acetyl)acrylohydrazide] |  |  |  | Binding MST (Nurr1 [1]; analogs of compound 85): + |
| CC(C)(NC(=O)c1cc(Cl)cc(Cl)c1)c1cn(CC(N)=O)nn1 [GWL 3.008, N-(2-(1-(2-amino-2-oxoethyl)-1H-1,2,3-triazol-4-yl)propan-2-yl)-3,5-dichlorobenzamide] | + | + |  |  |
| CC(C)(NC(=O)c1cc(Cl)cc(Cl)c1)c1cn(CCc2ccccc2)nn1 [SP 99, 3,5-dichloro-N-(2-(1-phenethyl-1H-1,2,3-triazol-4-yl)propan-2-yl)benzamide] | + | + |  |  |
